Reference: US20090023813A1, “Diphenyl Urea Derivatives” (Arpida AG, priority 2005, published 2009)
≈ marks a conversion by molar mass, not a printed value. Read-outs that look alike come from different tables or passages of the source.

Experiments:
Type in all cases: cell-based
E. faecalis VanB E80-8 = assay: Antimicrobial susceptibility testing (CLSI broth dilution MIC); details: for MIC: Enterococcus faecalis, VANBE808, representative pathogens for skin infections, read-out: Minimum Inhibitory Concentration (MIC) E. faecalis VanB E80-8; for Minimum Inhibitory Concentration (MIC) E. faecalis VanB E80-8: representative pathogens for gastro-intestinal infections
Description: (§1) Antimicrobial susceptibility testing was performed in accordance with the Clinical and Laboratory Standards Institute (CLSI).
(§2) Clinical and Laboratory Standards Institute (CLSI; formerly NCCLS): Methods for Dilution Antimicrobial Susceptibility Tests for Bacteria That Grow Aerobically; Approved Standard—Seventh Edition (2006). Clinical and Laboratory Standards Institute document M7-A7.

S. aureus ATCC 25923 = assay: as above; details: Staphylococcus aureus, ATCC25923
Description: as §1, §2

S. aureus MRSA 101 = assay: as above; details: Staphylococcus aureus
Description: as §1, §2

S. aureus MRSA 39 = assay: as above; details: for MIC: Staphylococcus aureus, MRSA, representative pathogens for nasal colonization, read-out: Minimum Inhibitory Concentration (MIC) S. aureus MRSA 39
Description: as §1, §2

S. epidermidis MRSE 70 = assay: as above; details: for MIC: Staphylococcus epidermidis, MRSE, representative pathogens for nasal colonization, read-out: Minimum Inhibitory Concentration (MIC) S. epidermidis MRSE 70
Description: as §1, §2

S. pneumoniae 1/1 = assay: Antimicrobial susceptibility testing of streptococci (CLSI, Todd Hewitt Broth without blood); details: Streptococcus pneumoniae, representative pathogens for ocular infections, read-out: Minimum Inhibitory Concentration (MIC) S. pneumoniae 1/1
Description: (§3) Antimicrobial susceptibility testing was performed in accordance with the Clinical and Laboratory Standards Institute (CLSI). Clinical and Laboratory Standards Institute (CLSI; formerly NCCLS): Methods for Dilution Antimicrobial Susceptibility Tests for Bacteria That Grow Aerobically; Approved Standard—Seventh Edition (2006). Clinical and Laboratory Standards Institute document M7-A7. Streptococci (S. pneumoniae, S. pyogenes, S. viridans) were tested following the CLSI methodology with the exception that Todd Hewitt Broth without blood was used. Anaerobic bacteria (P. acnes, B. distasonis) were tested following CLSI (formerly NCCLS) guidelines except for using microbroth dilutions in Wilkins Chalgren Broth. National Committee for Clinical Laboratory Standards (NCCLS). Methods for Anti-microbial Susceptibility Testing of Anaerobic Bacteria; Approved Standard—Sixth Edition (2004). NCCLS document M11-A6.

S. pyogenes GAS-1 = assay: as above; details: for MIC: Streptococcus pyogenes, GAS1, representative pathogens for ocular infections, read-out: Minimum Inhibitory Concentration (MIC) S. pyogenes GAS-1; for Minimum Inhibitory Concentration (MIC) S. pyogenes GAS-1: representative pathogens for skin infections
Description: as §3

S. viridans UHC7 = assay: as above; details: Streptococcus viridans, representative pathogens for dental infections, read-out: Minimum Inhibitory Concentration (MIC) S. viridans UHC7
Description: as §3

B. distasonis 5770 = assay: Antimicrobial susceptibility testing of anaerobic bacteria (microbroth dilution, Wilkins Chalgren Broth); details: Parabacteroides distasonis, representative pathogens for gastro-intestinal infections, read-out: Minimum Inhibitory Concentration (MIC) B. distasonis 5770
Description: as §3, with “(CLSI).” for “(CLSI). Clinical and Laboratory Standards Institute (CLSI; formerly NCCLS): Methods for Dilution Antimicrobial Susceptibility Tests for Bacteria That Grow Aerobically; Approved Standard—Seventh Edition (2006). Clinical and Laboratory Standards Institute document M7-A7.”

P. acnes 6390 = assay: as above; details: Cutibacterium acnes, representative pathogens for skin infections, read-out: Minimum Inhibitory Concentration (MIC) P. acnes 6390
Description: as §3, with “(CLSI).” for “(CLSI). Clinical and Laboratory Standards Institute (CLSI; formerly NCCLS): Methods for Dilution Antimicrobial Susceptibility Tests for Bacteria That Grow Aerobically; Approved Standard—Seventh Edition (2006). Clinical and Laboratory Standards Institute document M7-A7.”

[1] = representative pathogens for nasal colonization, read-out: Minimum Inhibitory Concentration (MIC) S. aureus ATCC 25923
[2] = representative pathogens for ocular infections, read-out: Minimum Inhibitory Concentration (MIC) S. aureus 25923
[3] = representative pathogens for nasal colonization, read-out: Minimum Inhibitory Concentration (MIC) S. aureus MRSA 101
[4] = representative pathogens for ocular infections, read-out: Minimum Inhibitory Concentration (MIC) S. aureus MRSA101
[5] = representative pathogens for ocular infections
[6] = representative pathogens for skin infections

MIC (E. faecalis VanB E80-8) | Minimum Inhibitory Concentration (MIC) E. faecalis VanB E80-8 (E. faecalis VanB E80-8) | MIC (S. aureus ATCC 25923; [1]) | MIC (S. aureus ATCC 25923; [2]) | MIC (S. aureus MRSA 101; [3]) | MIC (S. aureus MRSA 101; [4]) | MIC (S. aureus MRSA 39) | Minimum Inhibitory Concentration (MIC) S. aureus MRSA 39 (S. aureus MRSA 39; [5]) | Minimum Inhibitory Concentration (MIC) S. aureus MRSA 39 (S. aureus MRSA 39; [6]) | MIC (S. epidermidis MRSE 70) | Minimum Inhibitory Concentration (MIC) S. epidermidis MRSE 70 (S. epidermidis MRSE 70; [5]) | Minimum Inhibitory Concentration (MIC) S. epidermidis MRSE 70 (S. epidermidis MRSE 70; [6]) | MIC (S. pneumoniae 1/1) | MIC (S. pyogenes GAS-1) | Minimum Inhibitory Concentration (MIC) S. pyogenes GAS-1 (S. pyogenes GAS-1) | MIC (S. viridans UHC7) | MIC (B. distasonis 5770) | MIC (P. acnes 6390) | Compound
2 µg/mL (≈ 4.33 µM) | 2 micrograms/ml | 0.5 µg/mL (≈ 1.08 µM) | 0.5 µg/mL (≈ 1.08 µM) | 0.125 µg/mL (≈ 0.271 µM) | 0.125 µg/mL (≈ 0.271 µM) | 0.25 µg/mL (≈ 0.542 µM) | 0.25 micrograms/ml | 0.25 micrograms/ml | 0.25 µg/mL (≈ 0.542 µM) | 0.25 micrograms/ml | 0.25 micrograms/ml | 0.125 µg/mL (≈ 0.271 µM) | 0.25 µg/mL (≈ 0.542 µM) | 0.25 micrograms/ml | 0.5 µg/mL (≈ 1.08 µM) | 0.5 µg/mL (≈ 1.08 µM) | ≤ 0.03 µg/mL | O=C(Nc1cc(Br)cc(C(F)(F)F)c1)Nc1ccc(Cl)c(C(F)(F)F)c1 [Example 1, 1-(3-Bromo-5-trifluoromethyl-phenyl)-3-(4-chloro-3-trifluoromethyl-phenyl)-urea]
1 µg/mL (≈ 2.4 µM) | 1 micrograms/ml | 0.25 µg/mL (≈ 0.599 µM) | 0.25 µg/mL (≈ 0.599 µM) | 0.125 µg/mL (≈ 0.3 µM) | 0.125 µg/mL (≈ 0.3 µM) | 0.25 µg/mL (≈ 0.599 µM) | 0.25 micrograms/ml | 0.25 micrograms/ml | 0.25 µg/mL (≈ 0.599 µM) | 0.25 micrograms/ml | 0.25 micrograms/ml | 0.06 µg/mL (≈ 0.144 µM) | 0.25 µg/mL (≈ 0.599 µM) | 0.25 micrograms/ml | 0.5 µg/mL (≈ 1.2 µM) | 1 µg/mL (≈ 2.4 µM) | ≤ 0.03 µg/mL | O=C(Nc1cc(Cl)cc(C(F)(F)F)c1)Nc1ccc(Cl)c(C(F)(F)F)c1 [Example 2, 1-(3-Chloro-5-trifluoromethyl-phenyl)-3-(4-chloro-3-trifluoromethyl-phenyl)-urea]
1 µg/mL (≈ 2.09 µM) | 1 micrograms/ml | 0.125 µg/mL (≈ 0.262 µM) | 0.125 µg/mL (≈ 0.262 µM) | 0.5 µg/mL (≈ 1.05 µM) | 0.5 µg/mL (≈ 1.05 µM) | 0.25 µg/mL (≈ 0.523 µM) | 0.25 micrograms/ml | 0.25 micrograms/ml | 0.25 µg/mL (≈ 0.523 µM) | 0.25 micrograms/ml | 0.25 micrograms/ml | 0.25 µg/mL (≈ 0.523 µM) | 0.25 µg/mL (≈ 0.523 µM) | 0.25 micrograms/ml | 1 µg/mL (≈ 2.09 µM) | 1 µg/mL (≈ 2.09 µM) | ≤ 0.03 µg/mL | FC(F)(F)c1cc(Br)cc(NC(=S)Nc2ccc(Cl)c(C(F)(F)F)c2)c1 [Example 3, 1-(3-Bromo-5-trifluoromethyl-phenyl)-3-(4-chloro-3-trifluoromethyl-phenyl)-thiourea]
